According to patent US20170188618A1, “STABLE EMULSIONS FROM DIPEPTIDE DERIVATIVES” (UNIVERSITY OF STRATHCLYDE, priority 2014, published 2017):
Residues, ends and D or L forms follow the SMILES beside them. *: point of attachment. Fmoc = O=C(OCC1c2ccccc2-c2ccccc21)*

Assays:
thermolysin = target: T1, thermolysin (Bacillus thermoproteolyticus, UniProt P00800); assay: Enzymatic demulsification of emulsions by thermolysin; format: biochemical
T1 sequence (P00800 233-548): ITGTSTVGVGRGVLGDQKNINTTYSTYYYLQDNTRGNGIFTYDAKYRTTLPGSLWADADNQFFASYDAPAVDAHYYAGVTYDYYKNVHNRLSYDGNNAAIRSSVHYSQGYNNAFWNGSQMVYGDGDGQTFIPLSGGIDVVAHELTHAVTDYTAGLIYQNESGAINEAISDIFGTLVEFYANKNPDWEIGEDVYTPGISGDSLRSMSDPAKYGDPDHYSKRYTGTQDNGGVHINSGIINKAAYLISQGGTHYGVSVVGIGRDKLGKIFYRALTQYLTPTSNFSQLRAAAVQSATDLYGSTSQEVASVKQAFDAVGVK
Description: Scale bar is 50 μm. […] (c) Optical photographs of vials in which emulsions formed (left) and demulsified (right) in addition of thermolysin.
Another vital advantage of using peptide self-assembly to stabilize the emulsion systems is the ability to digest the stabilizing film using a suitable enzyme. Proteases, the enzymes that cleave peptide bonds cause disassembly of amphiphiles.
(§1) (the volume ratio of buffer solution to chloroform is altered from 1:9, 3:7, 5:5, 7:3, to 9:1, total volume was always 1 mL), after hand-shaking for 5 seconds emulsions form in vials. For SEM, IR, stability, average particle size, critical emulsion concentration and demulsification measurements, the volume ratio of buffer solution to chloroform was fixed at 7:3. The concentration of all aromatic peptide amphiphiles studied (Fmoc-YA, Fmoc-YS, Pyr-YL, Fmoc-FF and Fmoc-FFF) was 10 mM, except for in the determination of the critical emulsion concentration (0.1-10 mM) and demulsification measurements (2 mM).

[1] = Stability of chloroform-in-water emulsions (time, heat, salts) versus SDS; format: physicochemical; conditions: 10 mM
Method: The top images show freshly prepared emulsions and the bottom images show emulsions incubated for 2 weeks. […] The top images show freshly prepared emulsions and the bottom images show emulsions heated at 60° C. for 3 hours. […] The top images show freshly prepared emulsions and the bottom images show emulsions incubated for 24 hours.
as §1

[2] = Emulsion formation by aromatic peptide amphiphiles (fluorescence microscopy, FITC label); format: physicochemical; conditions: chloroform / phosphate buffer pH 8; 10 mM peptide
Method: as §1

[3] = format: physicochemical
Method: To further increase the hydrophobicity, di- and tri-phenylalanine were tested as the peptide sequences (Fmoc-FF and Fmoc-FFF). […] Replacing the Fmoc group with pyrene, amphiphiles and the emulsion systems are inherently endowed with fluorescent properties. […] There is the clear expectation, based upon the results presented that it should be possible to change the peptide sequences and aromatic moieties to further to optimize and functionalize the emulsion systems.

[4] = Partitioning of peptides between water, chloroform and the water/chloroform interface (UV-Vis); format: physicochemical; conditions: water/chloroform biphasic system
Description: (the volume ratio of buffer solution to chloroform is altered from 1:9, 3:7, 5:5, 7:3, to 9:1), after manual agitation for 5 seconds emulsions form in vials, as FIG. 2a shown. […] In the images shown, the milky layers are emulsions and the transparent layers above and below are the aqueous and chloroform phase, respectively. UV-Vis was used to determine the amount of Fmoc-YL that remained in water phase and transferred to chloroform. Fluorescein isothiocyanate (FITC) was used to label the aqueous phase in the emulsion layers for imaging by fluorescence microscopy.
High resolution mass spectra (HRMS) were recorded on a Thermo Electron Exactive. 400.1 (1H) NMR spectra were recorded on Brucker Avance 400 spectrometer at room temperature using perdeuterated solvents as internal standards. The emulsion droplets were characterized by fluorescence microscopy. The devices were mounted on an inverted microscope (AXIO Observer A1, Zeiss) and images were acquired using a EMCCD LucaR camera (Andor Technologies). Images (using brightfield and fluorescence microscopy) were acquired using Zeiss ×20 dry objective and the appropriate filter set for the fluorophore being imaged. Image was analyzed using ImageJ.

[5] = Gel formation in buffer solution and chloroform; format: physicochemical; conditions: 10 mM in 0.6 M sodium phosphate buffer pH 8, no enzyme
alkaline phosphatase = target: T2, alkaline phosphatase (Bos taurus, UniProt P19111); assay: Dephosphorylation of Fmoc-YpL to Fmoc-YL by alkaline phosphatase (reversed phase HPLC); format: biochemical, bovine; conditions: 10 mM, buffer pH 8
T2 construct: purchased Sigma Aldrich; host or cells: Pichia pastoris
Method: Enzymatic Conversion of Fmoc-YpL to Fmoc-YL.
Fmoc-Tyr(PO(NMe2)2-OH (537.55 g·mol^−1) was purchased from Novabiochem. Fmoc-Tyr-OH (403.43 g·mol^−1), L-Leucine tert-butyl hydrochloride (223.74 g·mol^−1) and alkaline phosphatase from bovine, expressed in Pichia pastoris (5000 U·mg^−1protein, 20 mgprotein·mL^−1, 0.049 mL, Apparent molar weight 160 kDa) were supplied by Sigma Aldrich. One enzyme unit corresponds to the quantity of alkaline phosphatase hydrolysing 1 μmol of 4-nitrophenyl phosphate per minute at pH 9.8 and 37° C.
10 mM of synthesised Fmoc-YpL was prepared in 950 μL of 0.6 M sodium phosphate buffer pH 8 and immediately added 50 μL of alkaline phosphatase (0.0555 U·μL^−1, or 55.53 U·mL^−1 enzymatic concentration), vortexed and subject to ultra sounds at room temperature. All characterisation was done after 24 hours except when stated otherwise. For the Fmoc-YpL precursor, the preparation was the same except no enzyme was added.

T2 sequence (P19111 20-506): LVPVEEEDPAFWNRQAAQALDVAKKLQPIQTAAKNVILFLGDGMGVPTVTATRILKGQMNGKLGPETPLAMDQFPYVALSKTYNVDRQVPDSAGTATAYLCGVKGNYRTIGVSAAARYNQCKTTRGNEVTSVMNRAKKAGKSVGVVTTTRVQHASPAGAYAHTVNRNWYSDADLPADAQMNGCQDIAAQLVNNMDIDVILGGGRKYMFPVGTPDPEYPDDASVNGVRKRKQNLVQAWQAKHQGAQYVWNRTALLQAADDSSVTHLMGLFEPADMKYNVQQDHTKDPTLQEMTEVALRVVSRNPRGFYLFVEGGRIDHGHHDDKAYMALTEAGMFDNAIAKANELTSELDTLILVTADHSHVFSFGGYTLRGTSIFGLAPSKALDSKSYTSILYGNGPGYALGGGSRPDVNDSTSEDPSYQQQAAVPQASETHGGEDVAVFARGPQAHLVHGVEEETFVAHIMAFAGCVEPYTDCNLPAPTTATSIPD

Molecule: Fmoc-tyrosine-leucine [Fmoc-YL]
- time for droplets to demulsify and coalesce to bigger droplets after adding thermolysin (thermolysin; 1 mg·mL^−1 thermolysin, 2 mmol·L^−1 Fmoc-YL): 60 s
- conversion of cleaving reaction catalyzed by thermolysin (HPLC) (thermolysin; after 10 minutes, aqueous media): 50%

Molecule: CCCCCCCCCCCCOS(=O)(=O)[O-].[Na+] [SDS, sodium dodecyl sulfate]
- emulsion state after 24 h in salt solution ([1]; 100 mM phosphate, chloride and thiocyanate solution): phase-separated
- emulsion state after two weeks at room temperature ([1]; chloroform-in-water): demulsified and phase-separated

Molecule: O=C(N[C@@H](Cc1ccccc1)C(=O)N[C@@H](Cc1ccccc1)C(=O)N[C@@H](Cc1ccccc1)C(=O)O)OCC1c2ccccc2-c2ccccc21 [Fmoc-FFF, Fmoc-Phe-Phe-Phe-OH] (Fmoc-Phe-Phe-Phe-OH)
- type of emulsion formed [2]: formation of water-in-chloroform emulsions
- solubility in chloroform [3]: do dissolve in chloroform
- solubility in the water phase [3]: too hydrophobic to dissolve in the water phase

Molecule: Fmoc-tyrosine phosphate-leucine [Fmoc-YpL]
- Remain in water (%) [4]: 31.03%
- Transfer to chloroform (%) [4]: 0.74%
- Transfer to interface (%) [4]: 68.23%
- gel formation of precursor solution [5]: not able to form a gel
- time to complete conversion to Fmoc-YL (alkaline phosphatase): ≤ 24 h
- Fmoc-YpL converted into Fmoc-YL (alkaline phosphatase; after 2 hours): approximately 90%
